Results reported in PubChem BioAssay (NCI).
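Results reflect a 48-hour exposure of cells in 96-well plates to compound at five concentrations. GI50 marks 50% less growth. TGI is the concentration that stops growth completely.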

How the values were obtained:
Experiment in all cases: growth of human tumour cells (NCI), 48 h
[1] = system: 786-0 renal
[2] = system: A498 renal
[3] = system: A549 NSCLC
[4] = system: ACHN renal
[5] = system: BT-549 breast
[6] = system: CAKI-1 renal
[7] = system: CCRF-CEM leukemia
[8] = system: COLO 205 colon
[9] = system: DU-145 prostate
[10] = system: EKVX NSCLC
[11] = system: HCC-2998 colon
[12] = system: HCT-116 colon
[13] = system: HCT-15 colon
[14] = system: HL-60(TB) leukemia
[15] = system: HOP-62 NSCLC
[16] = system: HOP-92 NSCLC
[17] = system: HS 578T breast
[18] = system: HT29 colon
[19] = system: IGROV1 ovarian
[20] = system: K-562 leukemia
[21] = system: KM12 colon
[22] = system: LOX IMVI melanoma
[23] = system: M14 melanoma
[24] = system: MALME-3M melanoma
[25] = system: MCF7 breast
[26] = system: MDA-MB-231 breast
[27] = system: MDA-MB-435
[28] = system: MOLT-4 leukemia
[29] = system: NCI-H226 lung
[30] = system: NCI-H460 lung
[31] = system: NCI-H522 lung
[32] = system: NCI/ADR-RES ovarian
[33] = system: OVCAR-4 ovarian
[34] = system: OVCAR-5 ovarian
[35] = system: OVCAR-8 ovarian
[36] = system: PC-3 prostate
[37] = system: RPMI-8226 leukemia
[38] = system: RXF 393 renal
[39] = system: SF-268 CNS
[40] = system: SF-295 CNS
[41] = system: SF-539 CNS
[42] = system: SK-MEL-2 melanoma
[43] = system: SK-MEL-28 melanoma
[44] = system: SK-MEL-5 melanoma
[45] = system: SK-OV-3 ovarian
[46] = system: SN12C renal
[47] = system: SNB-19 CNS
[48] = system: SNB-75 CNS
[49] = system: SR leukemia
[50] = system: SW-620 colon
[51] = system: T-47D breast
[52] = system: TK-10 renal
[53] = system: U251 CNS
[54] = system: UACC-257 melanoma
[55] = system: UACC-62 melanoma
[56] = system: UO-31 renal

With `Cc1ccc(C2=Nn3c(nnc3-c3ccccc3)SC2)cc1` the GI50 [1] was 6020 nM, the TGI [1] was > 100000 nM and the GI50 [2] was 445 nM. For the same compound, the TGI [2] was 5230 nM, the GI50 [3] was 702 nM and the TGI [3] was > 100000 nM. For the same compound, the GI50 [4] was 3270 nM, the TGI [4] was > 100000 nM and the GI50 [5] was 385 nM. For the same compound, the TGI [5] was > 100000 nM, the GI50 [6] was 750 nM and the TGI [6] was > 100000 nM. The GI50 [7] was 1660 nM, the TGI [7] was > 100000 nM and the GI50 [8] was 492 nM. For the same compound, the TGI [8] was 24500 nM, the GI50 [9] was 2850 nM and the TGI [9] was > 100000 nM. For the same compound, the GI50 [10] was 6840 nM, the TGI [10] was > 100000 nM and the GI50 [11] was 1040 nM. The TGI [11] was > 100000 nM, the GI50 [12] was 428 nM and the TGI [12] was > 100000 nM. The GI50 [13] was 416 nM, the TGI [13] was > 100000 nM and the GI50 [14] was 333 nM. For the same compound, the TGI [14] was > 100000 nM, the GI50 [15] was 1230 nM and the TGI [15] was > 100000 nM. The GI50 [16] was 2580 nM, the TGI [16] was > 100000 nM and the GI50 [17] was 1200 nM. The TGI [17] was 25600 nM, the GI50 [18] was 412 nM and the TGI [18] was 3530 nM. For the same compound, the GI50 [19] was 801 nM, the TGI [19] was > 100000 nM and the GI50 [20] was 321 nM. The TGI [20] was > 100000 nM, the GI50 [21] was 17300 nM and the TGI [21] was > 100000 nM. The GI50 [22] was 838 nM, the TGI [22] was > 100000 nM and the GI50 [23] was 435 nM. The TGI [23] was > 100000 nM, the GI50 [24] was > 100000 nM and the TGI [24] was > 100000 nM. The GI50 [25] was 1600 nM, the TGI [25] was > 100000 nM and the GI50 [26] was 497 nM. For the same compound, the TGI [26] was > 100000 nM, the GI50 [27] was 196 nM and the TGI [27] was 459 nM. The GI50 [28] was 461 nM, the TGI [28] was > 100000 nM and the GI50 [29] was 3450 nM. For the same compound, the TGI [29] was > 100000 nM, the GI50 [30] was 389 nM and the TGI [30] was 50000 nM. It also gave a GI50 [31] of 440 nM, a TGI [31] of 2540 nM and a GI50 [32] of 262 nM. For the same compound, the TGI [32] was 881 nM, the GI50 [33] was 6280 nM and the TGI [33] was > 100000 nM. The GI50 [34] was 2570 nM, the TGI [34] was > 100000 nM and the GI50 [35] was 1780 nM. The TGI [35] was 84600 nM, the GI50 [36] was 815 nM and the TGI [36] was > 100000 nM. The GI50 [37] was 895 nM, the TGI [37] was > 100000 nM and the GI50 [38] was 1870 nM. For the same compound, the TGI [38] was 19700 nM, the GI50 [39] was 6370 nM and the TGI [39] was > 100000 nM. The GI50 [40] was 845 nM, the TGI [40] was > 100000 nM and the GI50 [41] was 925 nM. It also gave a TGI [41] of 4760 nM, a GI50 [42] of 921 nM and a TGI [42] of 96900 nM. The GI50 [43] was 27400 nM, the TGI [43] was > 100000 nM and the GI50 [44] was 595 nM. The TGI [44] was > 100000 nM, the GI50 [45] was 1760 nM and the TGI [45] was > 100000 nM. For the same compound, the GI50 [46] was 799 nM, the TGI [46] was > 100000 nM and the GI50 [47] was 3500 nM. The TGI [47] was > 100000 nM, the GI50 [48] was 392 nM and the TGI [48] was 5270 nM. The GI50 [49] was 251 nM, the TGI [49] was > 100000 nM and the GI50 [50] was 378 nM. The TGI [50] was > 100000 nM, the GI50 [51] was 869 nM and the TGI [51] was > 100000 nM. The GI50 [52] was 54100 nM, the TGI [52] was > 100000 nM and the GI50 [53] was 528 nM. The TGI [53] was > 100000 nM, the GI50 [54] was > 100000 nM and the TGI [54] was > 100000 nM. For the same compound, the GI50 [55] was 536 nM, the TGI [55] was > 100000 nM and the GI50 [56] was 2150 nM. For the same compound, the TGI [56] was > 100000 nM.
